Experimental findings from PMC11358092, “Caspofungin enhances the potency of rifampin against Gram-negative bacteria” (Frontiers in Microbiology, 2024) are described below.

Structures can show the parent of a compound that is named as a salt.

For the assay, the system named is E. coli MG1655. In words: High-throughput screening of FDA-approved drug library for antibiotic adjuvants (growth inhibition, OD600). The assay is classed as cell-based, Escherichia coli. The conditions noted are these: library drug alone, LB medium, 96-well, 8 h static culture at 37°C, relative to PMBN (positive) and DMSO (negative) controls, %, table head prints no unit. As to the method:
To screen for antibiotic adjuvants against GNB, […] library drugs or polymyxin B nonapeptide (PMBN, positive control) or dimethyl sulfoxide (DMSO, negative control). After 8 h of static culture at 37°C, the optical density at 600 nm (OD600) was measured using a microplate reader. Percentage inhibition was calculated as (ODN – ODX)/(ODN – ODP) × 100%, where ODX is the OD600 value for a test treated with drug X, and ODP and ODN are the OD600 values for the positive and negative control, respectively.
Turning to `CN1CCN(c2c(F)cc3c(=O)c(C(=O)O)cn(CCF)c3c2F)CC1` [Fleroxacin], the “Growth inhibition, Compound” value was found to be 109%.
Next, `CS(=O)(=O)c1ccc([C@@H](O)[C@@H](CF)NC(=O)C(Cl)Cl)cc1` [Florfenicol]: 116%; `O=c1[nH]c(=O)n([C@H]2C[C@H](O)[C@@H](CO)O2)cc1F` [Floxuridine]: 87%.
In the case of `Nc1nc(F)nc2c1ncn2[C@@H]1O[C@H](COP(=O)(O)O)[C@@H](O)[C@@H]1O` [Fludarabine Phosphate], the “Growth inhibition, Compound” value is 43%.
For `CC1CCc2cc(F)cc3c(=O)c(C(=O)O)cn1c23` (stereo not shown) [Flumequine], the “Growth inhibition, Compound” value is 108%.
As to `C[C@@H]1O[C@@H]1P(=O)(O)O` [Fosfomycin Disodium], the “Growth inhibition, Compound” value came out at 102%.
With `C[C@@H]1O[C@@H]1P(=O)(O)O.NC(CO)(CO)CO` [Fosfomycin Tromethamine], the “Growth inhibition, Compound” value is 104%.
Regarding `NC(=O)N/N=C/c1ccc([N+](=O)[O-])o1` [Furacilin], the “Growth inhibition, Compound” value is 76%.
As for `Cl.O=C1OC(CN2CCOCC2)CN1/N=C/c1ccc([N+](=O)[O-])o1` (stereo not shown) [Furaltadone hydrochloride], the “Growth inhibition, Compound” value amounted to 115%.
With `CCCN1C[C@H](C)[C@@H](O)[C@](C)(O)[C@@H](CC)OC(=O)[C@H](C)[C@@H](O[C@H]2C[C@@](C)(OC)[C@@H](O)[C@H](C)O2)[C@H](C)[C@@H](O[C@@H]2O[C@H](C)C[C@H](N(C)C)[C@H]2O)[C@](C)(O)C[C@H]1C` [Gamithromycin], the “Growth inhibition, Compound” value stood at 96%.
`CC1NCc2cc(-c3ccc4c(=O)c(C(=O)O)cn(C5CC5)c4c3OC(F)F)ccc21.CS(=O)(=O)O.O` (stereo not shown) [Garenoxacin mesylate hydrate]: the “Growth inhibition, Compound” value was determined as 106%.
Next, `COc1c(N2CCNC(C)C2)c(F)cc2c(=O)c(C(=O)O)cn(C3CC3)c12.Cl` (stereo not shown) [Gatifloxacin hydrochloride]: 104%.
Next, `COc1c(N2CCNC(C)C2)c(F)cc2c(=O)c(C(=O)O)cn(C3CC3)c12` (stereo not shown) [Gatifloxacin]: 100%.
Turning to `CO/N=C1\CN(c2nc3c(cc2F)c(=O)c(C(=O)O)cn3C2CC2)CC1CN` (stereo not shown) [Gemifloxacin mesylate], the “Growth inhibition, Compound” value was 105%.
Take `CN[C@@H]1[C@@H](O)[C@@H](O[C@@H]2[C@@H](O)[C@H](O[C@H]3O[C@H]([C@@H](C)NC)CC[C@H]3N)[C@@H](N)C[C@H]2N)OC[C@]1(C)O.O=S(=O)(O)O` [Gentamycin sulfate]: the “Growth inhibition, Compound” value was determined as 110%.
For `C[C@@H](O)[C@H]1C(=O)N2C(C(=O)O)=C(SCCN=CN)C[C@H]12` [Imipenem monohydrate], the “Growth inhibition, Compound” value was 109%.
For `Oc1c(I)cc(I)c2cccnc12` [Iodoquinol], the “Growth inhibition, Compound” value turned out to be 70%.
Consider `CN[C@@H]1[C@@H](O)[C@@H](O[C@@H]2[C@@H](O)[C@H](O[C@H]3O[C@H](CN)[C@@H](O)[C@H](O)[C@H]3O)[C@@H](N)C[C@H]2NC(=O)[C@@H](O)CN)OC[C@]1(C)O` [Isepamicin sulfate], for which the “Growth inhibition, Compound” value turned out to be 108%.
In the case of `NC[C@H]1O[C@H](O[C@H]2[C@H](O)[C@@H](O[C@H]3O[C@H](CO)[C@@H](O)[C@H](N)[C@H]3O)[C@H](N)C[C@@H]2N)[C@H](O)[C@@H](O)[C@@H]1O` [Kanamycin sulfate], the “Growth inhibition, Compound” value was determined as 109%.
Consider `CO[C@@]1(NC(=O)C(C(=O)O)c2ccc(O)cc2)C(=O)N2C(C(=O)O)=C(CSc3nnnn3C)CO[C@@H]21` (stereo partly shown) [Latamoxef sodium], for which the “Growth inhibition, Compound” value stood at 94%.
On to `C=C[C@]1(C)C[C@@H](OC(=O)CS[C@@H]2CC[C@@H](N)C[C@H]2O)C2(C)[C@H](C)CCC3(CCC(=O)[C@H]32)[C@@H](C)[C@@H]1O.CC(=O)O` (stereo partly shown) [Lefamulin acetate], for which the “Growth inhibition, Compound” value amounted to 98%.
With `C[C@H]1COc2c(N3CCN(C)CC3)c(F)cc3c(=O)c(C(=O)O)cn1c23` [Levofloxacin Hemihydrate], the “Growth inhibition, Compound” value is given as 114%.
Next, `C[C@H]1COc2c(N3CCN(C)CC3)c(F)cc3c(=O)c(C(=O)O)cn1c23` [Levofloxacin hydrochloride]: 110%; `C[C@H]1COc2c(N3CCN(C)CC3)c(F)cc3c(=O)c(C(=O)O)cn1c23` [Levofloxacin]: 102%.
In the case of `CCn1cc(C(=O)O)c(=O)c2cc(F)c(N3CCNC(C)C3)c(F)c21` (stereo not shown) [Lomefloxacin hydrochloride], the “Growth inhibition, Compound” value worked out at 107%.
Consider `CCn1cc(C(=O)O)c(=O)c2cc(F)c(N3CCNC(C)C3)c(F)c21` (stereo not shown) [Lomefloxacin], for which the “Growth inhibition, Compound” value is 99%.
Turning to `CN1CCN(c2c(F)cc3c(=O)c(C(=O)O)cn4c3c2OCN4C)CC1` [Marbofloxacin], the “Growth inhibition, Compound” value turned out to be 108%.
As to `C[C@@H](O)[C@H]1C(=O)N2C(C(=O)O)=C(S[C@@H]3CN[C@H](C(=O)N(C)C)C3)[C@H](C)[C@H]12` [Meropenem trihydrate], the “Growth inhibition, Compound” value was determined as 86%.
Next, `C[C@@H](O)[C@H]1C(=O)N2C(C(=O)O)=C(S[C@@H]3CN[C@H](C(=O)N(C)C)C3)[C@H](C)[C@H]12` [Meropenem]: 90%.
For `C=C1c2cccc(O)c2C(=O)C2=C(O)[C@]3(O)C(=O)C(C(N)=O)=C(O)[C@@H](N(C)C)[C@@H]3[C@@H](O)[C@H]12` [Methacycline hydrochloride], the “Growth inhibition, Compound” value came to 112%.
Next, `CC1(C)S[C@@H]2[C@H](NC(=O)[C@H](NC(=O)N3CCN(S(C)(=O)=O)C3=O)c3ccccc3)C(=O)N2[C@H]1C(=O)O` [Mezlocillin Sodium]: 89%; `CN(C)c1ccc(O)c2c1C[C@H]1C[C@H]3[C@H](N(C)C)C(O)=C(C(N)=O)C(=O)[C@@]3(O)C(O)=C1C2=O` [Minocycline hydrochloride]: 91%; `CO/N=C1\C[C@]2(C[C@@H]3C[C@@H](C/C=C(\C)C[C@@H](C)/C=C/C=C4\CO[C@@H]5[C@H](O)C(C)=C[C@@H](C(=O)O3)[C@]45O)O2)O[C@H](/C(C)=C/C(C)C)[C@H]1C` [Moxidectin]: 32%.
Take `COc1c(N2C[C@@H]3CCCN[C@@H]3C2)c(F)cc2c(=O)c(C(=O)O)cn(C3CC3)c12` [Moxifloxacin hydrochloride]: the “Growth inhibition, Compound” value was 111%.
Turning to `COc1c(N2C[C@@H]3CCCN[C@@H]3C2)c(F)cc2c(=O)c(C(=O)O)cn(C3CC3)c12` [Moxifloxacin], the “Growth inhibition, Compound” value is listed as 101%.
For the compound `C/C(=C\C(=O)OCCCCCCCCC(=O)[O-])C[C@@H]1OC[C@H](C[C@@H]2O[C@H]2[C@@H](C)[C@H](C)O)[C@@H](O)[C@H]1O.C/C(=C\C(=O)OCCCCCCCCC(=O)[O-])C[C@@H]1OC[C@H](C[C@@H]2O[C@H]2[C@@H](C)[C@H](C)O)[C@@H](O)[C@H]1O.O.O.[Ca+2]` [Mupirocin calcium], the “Growth inhibition, Compound” value came out at 96%.
`C/C(=C\C(=O)OCCCCCCCCC(=O)O)C[C@@H]1OC[C@H](C[C@@H]2O[C@H]2[C@@H](C)[C@H](C)O)[C@@H](O)[C@H]1O` [Mupirocin]: the “Growth inhibition, Compound” value is given as 83%.
Consider `CCN1C(=O)C=CC1=O` [N-Ethylmaleimide], for which the “Growth inhibition, Compound” value is reported as 106%.
`CC1CCc2c(N3CCC(O)CC3)c(F)cc3c(=O)c(C(=O)O)cn1c23` (stereo not shown) [Nadifloxacin]: the “Growth inhibition, Compound” value was found to be 110%.
For the compound `CCn1cc(C(=O)[O-])c(=O)c2ccc(C)nc21.[Na+]` [Nalidixic acid sodium salt], the “Growth inhibition, Compound” value was 63%.
As for `CCn1cc(C(=O)O)c(=O)c2ccc(C)nc21` [Nalidixic acid], the “Growth inhibition, Compound” value was 74%.
Turning to `CCN[C@@H]1C[C@H](N)[C@@H](O[C@H]2OC(CN)=CC[C@H]2N)[C@H](O)[C@H]1O[C@H]1OC[C@](C)(O)[C@H](NC)[C@H]1O.CCN[C@@H]1C[C@H](N)[C@@H](O[C@H]2OC(CN)=CC[C@H]2N)[C@H](O)[C@H]1O[C@H]1OC[C@](C)(O)[C@H](NC)[C@H]1O.O=S(=O)(O)O.O=S(=O)(O)O.O=S(=O)(O)O.O=S(=O)(O)O.O=S(=O)(O)O` [Netilmicin sulfate], the “Growth inhibition, Compound” value is given as 109%.
In the case of `O=C(Nc1ccc([N+](=O)[O-])cc1Cl)c1cc(Cl)ccc1O` [Niclosamide], the “Growth inhibition, Compound” value came out at 45%.
Regarding `CSCC1CN(/N=C/c2ccc([N+](=O)[O-])o2)C(=O)O1` (stereo not shown) [Nifuratel], the “Growth inhibition, Compound” value came out at 108%.
`O=C(N/N=C/c1ccc([N+](=O)[O-])o1)c1ccc(O)cc1` [Nifuroxazide]: the “Growth inhibition, Compound” value was 102%.
As to `CC(=O)Oc1ccccc1C(=O)Nc1ncc([N+](=O)[O-])s1` [Nitazoxanide], the “Growth inhibition, Compound” value is listed as 36%.
Regarding `CC(=O)Nc1ncc([N+](=O)[O-])s1` [Nithiamide], the “Growth inhibition, Compound” value amounted to 87%.
As to `O=C1CN(/N=C/c2ccc([N+](=O)[O-])o2)C(=O)N1` [Nitrofurantoin], the “Growth inhibition, Compound” value was found to be 98%.
Consider `O=[N+]([O-])c1ccc(O)c2ncccc12` [Nitroxoline], for which the “Growth inhibition, Compound” value is on record as 105%.
As to `CCn1cc(C(=O)O)c(=O)c2cc(F)c(N3CCNCC3)cc21` [Norfloxacin], the “Growth inhibition, Compound” value was found to be 99%.
As for `CCCCCCCCN=c1ccn(CCCCCCCCCCn2ccc(=NCCCCCCCC)cc2)cc1` [Octenidine Dihydrochloride], the “Growth inhibition, Compound” value was determined as 91%.
In the case of `CC1COc2c(N3CCN(C)CC3)c(F)cc3c(=O)c(C(=O)O)cn1c23` (stereo not shown) [Ofloxacin], the “Growth inhibition, Compound” value was 107%.
Next, `C[C@@H]1CN(c2c(F)c(F)c3c(=O)c(C(=O)O)cn(C4CC4)c3c2F)C[C@H](C)N1` [Orbifloxacin]: 113%.
As for `CCn1cc(C(=O)O)c(=O)c2cc3c(cc21)OCO3` [Oxolinic acid], the “Growth inhibition, Compound” value came to 108%.
Turning to `O=C(Nc1cc(Cl)cc(Cl)c1O)c1c(O)c(Cl)cc(Cl)c1Cl` [Oxyclozanide], the “Growth inhibition, Compound” value was found to be 52%.
